Test results reported in patent US20200239530A1, “COMPOUNDS AND METHODS OF MODULATING PROTEIN DEGRADATION” (Vividion Therapeutics, Inc., priority 2017, published 2020).

What was measured:
[1] = biological target: T1, CEP44 Centrosomal protein of 44 kDa (Homo sapiens, UniProt Q9C0F1); assay: Cysteine liganding, probe competition; assay type: binding
T1 construct: 200 μL of lysate containing 5 mg/ml proteome was treated with 2 μL of 100× compound stock; endogenous in cells
T1 sequence (Q9C0F1 1-390): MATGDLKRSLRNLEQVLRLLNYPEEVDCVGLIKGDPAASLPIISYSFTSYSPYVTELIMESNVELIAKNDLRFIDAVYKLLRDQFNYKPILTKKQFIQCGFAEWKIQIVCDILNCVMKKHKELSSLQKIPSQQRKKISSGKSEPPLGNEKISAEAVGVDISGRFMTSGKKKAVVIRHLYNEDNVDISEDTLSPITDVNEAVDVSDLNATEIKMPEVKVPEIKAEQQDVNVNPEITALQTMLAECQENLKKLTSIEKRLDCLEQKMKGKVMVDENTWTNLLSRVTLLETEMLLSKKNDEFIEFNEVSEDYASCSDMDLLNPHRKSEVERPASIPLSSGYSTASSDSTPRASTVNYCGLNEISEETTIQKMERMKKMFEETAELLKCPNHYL
Method in brief: (§1)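 Probe competition in native proteome: 5 mg/ml lysate, compound 1 hr 25° C, then desthiobiotin iodoacetamide (10 mM stock) 1 hr 25° C; acetone ppt, urea/DTT reduction, iodoacetamide alkylation, trypsin, streptavidin pull-down.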

[2] = biological target: T2, VRK3 Inactive serine/threonine-protein kinase VRK3 (Homo sapiens, UniProt Q8IV63); assay: Cysteine liganding, probe competition; assay type: binding
T2 construct: Cells were resuspended in cold PBS on ice and sonicated with a probe sonicator to achieve lysis; endogenous in cells
T2 sequence (Q8IV63 1-474): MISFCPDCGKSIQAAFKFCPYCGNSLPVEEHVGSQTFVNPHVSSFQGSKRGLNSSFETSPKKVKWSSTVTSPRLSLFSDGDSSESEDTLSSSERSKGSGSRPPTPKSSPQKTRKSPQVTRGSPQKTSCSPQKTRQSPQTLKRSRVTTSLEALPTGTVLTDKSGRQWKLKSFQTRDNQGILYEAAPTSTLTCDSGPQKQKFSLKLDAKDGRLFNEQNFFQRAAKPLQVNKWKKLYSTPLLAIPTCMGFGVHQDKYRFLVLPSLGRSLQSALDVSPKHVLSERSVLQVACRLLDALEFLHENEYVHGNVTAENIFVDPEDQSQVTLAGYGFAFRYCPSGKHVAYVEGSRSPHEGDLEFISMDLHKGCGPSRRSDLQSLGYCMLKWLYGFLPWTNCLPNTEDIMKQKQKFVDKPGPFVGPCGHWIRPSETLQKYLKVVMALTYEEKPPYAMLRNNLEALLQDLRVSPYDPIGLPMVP
Method in brief: as §1

## O=C(CCl)Nc1cc(C(F)(F)F)cc(C(F)(F)F)c1 [KBO3]
[1]; uniprot Q9C0F1
  100 ave: 14.85
  500 ave: 69.9
[1]; uniprot Q9C0F1, in % (unit assumed)
  100 Max: 14.85
[1]; uniprot Q9C0F1, unit assumed
  500 Max: 69.9%
[2]; uniprot Q8IV63
  100 Max: −8.38
  100 ave: −10.03
  500 ave: 14.41
[2]; uniprot Q8IV63, in % (unit assumed)
  500 Max: 14.41

## COc1ccc2c(c1)CCCN2C(=O)CCl [KB02]
[1]; CEP44 Res# 28, uniprot Q9C0F1
  Liganded: YES
[2]; VRK3 Res# 191, uniprot Q8IV63
  Liganded: YES
